Values joined by “and” are separate entries in the source; they are usually repeats but may differ in a detail not shown here. Identical values can stand only once.
Legend:
[1] = test system: human skin fibroblasts in primary culture; experiment: Cell proliferation by neutral red staining (cell viability); format: cell-based; details: TGF positive control, 96 hours of incubation, control = 100
Method: (§1) Assays were carried out to assess the potential of the polysaccharides obtained in accordance with the present invention in promoting cell proliferation (the increase in the number of cells in relation to a control group not treated with the active ingredient) by analyzing cell viability through neutral red staining. Another object of the assays was to assess the procollagen potential of active ingredients (collagen in excess produced by the cells treated with the active ingredient in relation to the untreated control cells), by detecting the collagen in the culture supernatant through the sirius red stain.
a) Whether or not the presence of a specific active ingredient in the cell culture, for one or more periods, results in an increase in the number of cells in relation to the control group (cells not treated with the same active ingredient). The number of cells is estimated as a function of the cell viability rate, which is monitored by the incubation of fibroblasts with the vital stain neutral red at the end of the assay period (96 h). This stain is incorporated into living cells so that the cell viability rate is given by the intensity of the stain absorbed by the cells in a directly proportional ratio. The colorimetric reading is carried out in a spectrophotometer, at the wavelength of 540 nm.

[2] = test system: human skin fibroblasts in primary culture; experiment: Procollagen potential / collagen synthesis by sirius red stain in culture supernatant; format: cell-based; details: TGF positive control, 96 hours; for Normalized Collagen (%) (increase in collagen synthesis): control = 0.00
Method: as §1
b) Whether or not the presence of the active ingredient induces the cells to produce more collagen per se. To this end, dermis-derived human fibroblasts are incubated with the […](TGF-β), known to induce collagen synthesis and secretion (positive control). Simultaneously, other fibroblasts under the same condition are incubated with the active ingredient being tested. The collagen is identified by the sirius red stain (picrosirius solution), which has affinity for procollagen and collagen molecules. The procollagen potential of each active ingredient is identified by the increase in optical density (absorbance 540 nm filter) measured after the dissolution of the pigments previously absorbed by the collagen present in the culture supernatants.

tumor growth factor-β [TGF]
Cell Proliferation [1]: 136.00% and 148.1% | Total Collagen ± standard deviation (optical density) ([2]; control 0.152): 0.224 ± 0.009 Abs | Normalized Collagen (%) (increase in collagen synthesis) [2]: 98.10% | Normalized Collagen (%) (increase in collagen synthesis) ([2]; listed as TGF-b): 98.1% | Collagen (%) after normalization by the viability index ([2]; control = 100.00 (Table 2)): 109.4% | Normalized Collagen ([2]; normalized by viability index, control = 100.00): 198.10%

— US10844141B2, “Process for obtaining polysaccharides from jatoba (Hymenea courbaril l ) seeds, cosmetic composition comprising said polysaccharides and uses thereof” (NATURA COSMÉTICOS S.A., priority 2008, dated 2020)
